According to patent US20210363483A1, “METHOD FOR PRODUCING CULTURED CELL, AND METHOD FOR PRODUCING THERAPEUTIC AGENT FOR SPINAL CORD INJURY DISEASE” (REGENESIS SCIENCE CO., LTD., priority 2017, published 2021):

System: GDNF mRNA
Assay: GDNF mRNA expression by real-time PCR in cultured human skin-derived stem cells
Assay type: cell-based
Method: To find a compound or cytokine to increase the expression of GDNF in cells, following 6 candidate materials were examined: Valproic Acid (VA), Platelet-Derived Growth Factor (PDGF), SAG (or Purmorphamine or rh-Sonic Hedgehog (PeproTech)), Bone Morphogenic Protein 4 (BMP4). These 6 materials were added to 7 wells, which had reached to confluence in Example 1, in the following combinations: (1) Control (not added) (2) VA (1 uM), (3) VA (1 uM)+PDGF (long/ml), (4) VA (1 uM)+SAG (0.3 uM), (5) PDGF (long/ml), (6) SAG (0.3 uM), (7) […] (long/ml). 72 hours after the addition, total RNA was extracted from each well by TRIzol method. Using “ReverTra Ace (trade mark) qPCR RT kit”, a cDNA synthesis kit for PCR, 0.5 ug of each total RNA was added to 10 μL of ReverTra Ace (trade mark) qPCR RT kit to synthesize respective cDNA. […]
PCR was performed by three-step method under the conditions of annealing 60° C./elongation 72° C. and the steps (1) to (2) were repeated for 40 cycles. In the last step, a Melting Curve was analyzed and it was confirmed that no primer dimer was produced. […]

## c1ccc2c(Oc3nc(Nc4ccc(N5CCOCC5)cc4)c4ncn(C5CCCCC5)c4n3)cccc2c1 [Purmorphamine, 9-Cyclohexyl-N-[4-(4-morpholinyl)phenyl]-2-(1-naphthalenyloxy)-9H-purin-6-amine]
Purmorphamine 1.5 uM used in place of SAG
  expression of GDNF mRNA (GDNF mRNA/GAPDH mRNA) compared with control: ~10 times

## CNC1CCC(N(Cc2cccc(-c3ccncc3)c2)C(=O)c2sc3ccccc3c2Cl)CC1 (centres unmarked) [SAG, N-Methyl-N′-(3-pyridinylbenzyl)-N′-(3-chlorobenzo[b]thiophene-2-carbonyl)-1,4-diaminocyclohexane]
SAG 0.3 uM, 72 hours after addition
  expression of GDNF mRNA (GDNF mRNA/GAPDH mRNA) compared with control: more than 10 times
